“Also recorded” adds a separate entry of the source.
How the values were obtained:
E5C3 CB-hiPSC = experiment: Retention of TRA-1-81+SSEA4+ phenotype by FACS after removing single inhibitors from LIF-4i; assay type: cell-based, human; details: for Effect of removing the inhibitor from LIF-4i on the TRA-1-81+SSEA4+ phenotype: E5C3 kept in LIF-4i for 3 passages (6 days), then inhibitor removed, feeder-free
Description: FIGS. 8A-8C. […] Alternatively, E5C3 CB-hiPSC were maintained in LIF-4i for 3passages (6 days) and then cither XAV939 (E5C3-XAV939, square datapoints, dotted line) or Go6983 (E5C3 LIF-3i, triangles, dashed line) were removed from the LIF-4i formulation. […] (8B) Representative photomicrographs and flow cytometry plots of CB-hiPSC when continuously cultured in LIF-4i (LIF+4i, 6 passages), or when cultured in LIF-4i for 3 passages and then transferred into FF conditions that omitted for 3 passages the PKC inhibitor Go6983 (LIF+3i) or the tankyrase/PARP inhibitor XAV939 (without XAV939) or without XAV939 and reducing the concentration of CHIR99021 (without XAV939, CHIR 1 uM).

[1] = tested on: tankyrases 1 and 2 (TANK 1/2) and AXIN-1 proteins; experiment: Western blot of tankyrase-regulated proteins in primed vs LIF-4i TIRN cultures; assay type: cell-based, human; details: LIF-4i (contains XAV939) vs isogenic primed E8
Description: Western blots were performed of primed vs. TIRN lysates of hESC RUES02 and three independent XF/FF UTIRN CB-hiPSC lines (E32C1XF, E32C4XF, E32C6XF). ACTIN, HSP90 and total STAT3 served as internal loading controls. Western blots of XAV939-inhibited proteolysis of tankyrases 1 and 2(TANK 1/2) and AXIN-1 proteins in isogenic primed vs. TIRN conditions for TIRN-reverted RUES02 and XF/FF CB-hiPSC lines. Western blot analysis of hPSC lines in primed (E8) and naïve (LIF-4i) cultures for expression of phosphorylated (phospho.) STAT3 and ERK1/2, tankyrase 1/2 and axin1.
Cell lysates were prepared from parallel primed (E8) and TIRN (LIF-4i) cultures and 20 or 35 ug of proteins were loaded per lane.

[2] = tested on: tankyrase PARylating activity and PARP1-mediated PARylation; details: 293T cells; cited from earlier work
[3] = tested on: LIF-4i UTIRN-CB-hiPSC (E32C6XF); experiment: Cell attachment during passaging onto Vitronectin-XF-coated plates; assay type: cell-based, human; details: overnight exposure, 2-5 uM
Description: FIGS. 9A-9C. Optimization of the transition step from E8 primed hPSC conditions to LIF-4i TIRN conditions: clonal cell passaging. (9A) Clonal efficiency during the first passage in LIF-4i TIRN conditions for hESC line (RUES01). Supplementation of LIF-3i with forskolin and purmophamine (i.e., LIF-5i) and brief adaptation of primed hPSC was previously shown to facilitate clonal transition and survival of primed cells to TIRN hPSC when subsequently cultured continuously in LIF-3i TIRN conditions on feeders. […] Therefore, the brief LIF-5i adaptation period was limited to only overnight exposure prior to passaging. […] (9A—middle, right panels) In contrast, high density culture in E8 (e.g., up to 6 days) prior to passaging in LIF-4i negatively impacted the transition into LIF-4i TIRN conditions. Photomicrographs represent primed cultures immediately prior to passaging into LIF-4i TIRN conditions. (9B) Requirement for ROCK inhibitor Y27632during passaging.
FIG. 7A outlines the transition between primed (i.e. E8) and the LIF-4i FF-TIRN-reverted system. Upon passaging into LIF-4i, hPSC immediately adopt a smaller dome-shaped morphology that expands from single cells. Photomicrographs document the morphology of the hiPSC line 6.2 during the first passages into LIF-4i (bulk passaging without colony picking) and after stable expansion for 10 consecutive passages (FIG. 7B). […]

[4] = tested on: Primed E8 and LIF-4i UTIRN-hiPSC; experiment: DNA damage induction with radiomimetic, Western blot of DNA repair machinery; assay type: cell-based, human; details: 4 hours treatment; TIRN-hPSC vs primed E8 hPSC
Description: FIGS. 20A-20B. Induction of DNA damage in primed hPSC and XF/FF UTIRN-hPSC following exposure to the radiomimetic DNA damage inducing agent neocarzinostatin (NCS). Unlike somatic cells, naïve mouse embryonic stem cells (ESC) employ homologous recombination machinery to repair double strand breaks. However, imbalanced levels of DNAPKc in mouse ESC results into poor capacity for rejoining of radiation-induced DNA double-strand breaks in comparison to human primed ESC.
Methods. Conventional (primed) XF CB-hiPSC lines and control H9 hESC were grown in E8 medium. Isogenic TIRN-hPSC were cultured in parallel using LIF-4i. For Western blotting, whole cell lysates were prepared in RIPA buffer, 1.5 mM EDTA with protease inhibitor. Protein lysates were quantified using the BCA assay. Equal amounts of total protein lysate (e.g., 20 μg) were loaded into precast polyacrylamide gradient gels, size-separated using the Mini-PROTEAN electrophoresis system and blotted onto PDVF membranes for chemiluminescent analysis. Primed hPSC and isogenic TIRN-hPSC were assayed for endogenous DNA damage during routine culture (FIG. 20) or upon DSB induction using the radiomimetic agent neocarzinostatin (NCS). In these experiments, hPSC were treated for 4 hours with NCS before preparing lysates. […]

With `Cc1cnc(-c2cnc(NCCNc3ccc(C#N)cn3)nc2-c2ccc(Cl)cc2Cl)[nH]1` [CHIR99021, 6-[[2-[[4-(2,4-Dichlorophenyl)-5-(5-methyl-1H-imidazol-2-yl)-2-pyrimidinyl]amino]ethyl]amino]-3-pyridinecarbonitrile] the “Rescue of XAV939 depletion by reduced CHIR99021 concentration” value (E5C3 CB-hiPSC; E5C3, without XAV939, CHIR99021 @ 1 uM) was “not rescued”.
With `COc1ccc2c(c1)c(C1=C(c3c[nH]c4ccccc34)C(=O)NC1=O)cn2CCCN(C)C` [Go6983] the “Effect of removing the inhibitor from LIF-4i on the TRA-1-81+SSEA4+ phenotype” value (E5C3 CB-hiPSC) was “hiPSC started differentiating after a few days without Go6983”.
For `Oc1nc(-c2ccc(C(F)(F)F)cc2)nc2c1CSCC2` [XAV939], the “Effect of removing the inhibitor from LIF-4i on the TRA-1-81+SSEA4+ phenotype” value (E5C3 CB-hiPSC) is given as “rapid loss of TRA-1-81 and SSEA4 expression”, the “Levels of tankyrase-PARylation-regulated proteins (AXIN1, tankyrases)” value [1] is given as “tankyrase auto-PARylation and proteolysis is inhibited by XAV939; also recorded: upregulated” and the “Effect on tankyrase and PARP1-mediated PARylation” value [2] is given as “downregulate tankyrase PARylating activity, but also PARP1-mediated PARylation”.
In the case of `C[C@@H](N)[C@H]1CC[C@H](C(=O)Nc2ccncc2)CC1` [Y-27632], the “Promotion of cell attachment during passaging” value [3] is reported as “sufficient and required to promote efficient attachment”.
For neocarzinostatin [NCS], the “phospho-H2AX response to DSB induction” value [4] was “elevated levels of phospho-H2AX”.

Source: patent publication US20240384232A1, “CLINICAL-GRADE THERAPEUTIC PROGENITORS GENERATED FROM TANKYRASE/PARP-INHIBITED PLURIPOTENT STEM CELL BANKS” (THE JOHNS HOPKINS UNIVERSITY, priority 2022, published 2024)
